Consider 18 molecules from patent publication US6063782A, “Pyrrolopyridazine derivatives” (Sankyo Company, Limited, priority 1994, dated 2000).

For test [1], the system named is Helicobacter pylori strains 9470, 9472 and 9474. In words: Antibacterial activity against Helicobacter pylori. The settings on record: strains 9470, 9472 and 9474, 37° C., 3 days, slightly aerobic; result given in words only. It counts as cell-based. The procedure:
Antibacterial activity against Helicobacter pylori The antibacterial activity of the compounds of the present invention were evaluated by measuring the minimum inhibitory concentration values (MIC) of the present compounds against Helicobacter pylori strains 9470, 9472 and 9474. These strains of Helicobacter pylori were incubated for 4 days on a plate medium. The medium was prepared by dissolving brain heart infusion agar (Product of DIFCO) in a defined amount of distilled water, by sterilization in an autoclave, injecting horse blood (Product of Nihon Seibutsu Zairyo Co.) into each plate for the medium to contain 7% of the blood and by solidifying. Under slightly aerobic conditions, Helicobacter pylori cultivated at 37° C. for 4 days was suspended in a physiological saline solution for its inocular size to be about 10^8 CFU/ml. The suspension was diluted 100 times, and about 10 μl of the diluted suspension was inoculated on a medium for MIC determination. The medium for MIC determination used had the same compounds as those for preculture. […] In a similar way to the preculture, Helicobacter pylori was cultivated at 37° C. for 3 days under slightly aerobic conditions. […] The minimum concentration which gave no bacterial growth was regarded as MIC of the compound of the present invention.

In test [2] the target is proton.potassium-adenosine triphosphatase (H+.K+-ATPase) (Sus scrofa, UniProt P19156). Kind of test: Proton.potassium-adenosine triphosphatase (H+.K+-ATPase) inhibition test. The class given is biochemical. The settings on record: microsomal fraction of porcine gastric mucosa, pH=6.85, 37° C.; result given in words only. The procedure: Proton.potassium-adenosine triphosphatase (H^+.K^+ -ATPase) activation test
According to the method reported by Sachs et al. [J. Biol. Chem., 251, 7690 (1976)], a microsomal fraction obtained from homogenized fresh porcine gastric mucosa by density gradient ultracentrifugation was used as the proton.potassium-adenosine triphosphatase preparation, 10 μl of a solution of a test compound in dimethylsulfoxide were added to 0.75 ml of 70 mM tris-HCl buffer solution (magnesium chloride 5 mM, potassium chloride 20 mM and pH=6.85) containing from 30 to 80 μg/ml (in terms of protein concentration) of the enzyme preparation and the mixture was incubated for 45 minutes at 37° C. with shaking at 200 times per minute. The enzyme reaction was initiated by adding 0.25 ml of 8 mM disodium adenosine triphosphate solution. After 20 minutes of the reaction time, the reaction was stopped by adding 1 ml of a 10k trichloroacetic acid-active carbon (100 mg) solution. The reaction solution was centrifuged (4° C., 3000 rpm, 15 minutes) and the inorganic phosphate in the supernatant prepared from adenosine triphosphate by hydrolysis was measured by colorimetry, according to the method of Yoda and Hokin [Biochem. Biophys. Res. Commun., 40, 880 (1970)]. In a similar manner, the amount of inorganic phosphate was measured in a reaction solution in the absence of potassium chloride. From the difference between the phosphate amounts in the presence and absence of potassium chloride, the proton-potassium-adenosine triphosphatase activity was calculated. Based on the activity value in the control and the values in the test compound at the various concentrations tested, the inhibiting rates (%) and then the 50? inhibiting concentrations (IC50) to proton.potassium-adenosine triphosphatase activity were obtained.

The subject of the next test is gastric acid secretion. Kind of test: Gastric acid secretion activity test using pyloric ligation in rats (Shay rat method). It counts as in vivo. The settings on record: male SD rats, 20 mg/kg injected into the duodenal region, 4 hours, result given in words only. Here is the method: Gastric acid secretion activity test using pyloric ligation in rats (Shay rat method)
Pyloric ligation was conducted based on the method of Shay et al. [Gastroenterology, 5, 43 (1945)]. Male rats of SD strain were fasted for 24 hours; their abdomens were sectioned during anesthesia under ether. The duodenal and pyloric regions were exposed and the latter was ligated. A solution of a test compound (10 mg/ml) prepared by use of 1.5w parts of dimethylacetamide, 68.5% parts of polyethyleneglycol (PEG-400) and 30% parts of physiological saline solution, was injected into the duodenal region for the dose to be 20 mg/kg by use of a 1-ml syringe and an injection needle (26G). After injection of the test compound, the abdominal region was sutured. The animals were allowed to a stand for 4 hours without feeding food and water and then sacrified with carbon dioxide gas. The stomach was excised and gastric juice was gathered. The gastric juice sample was centrifuged (4° C., 2500 rpm, 15 minutes). The amount of the supernatant was measured to be as the gastric secretion. The acidity of the gastric juice was determined by the amount (ml) of 0.01 N sodium hydroxide solution required for titration of 0.1 ml of the supernatant to pH 7.0 by use of-an auto-titrating apparatus. The value of gastric acid secretion was calculated from the value of gastric secretion and the acidity of gastric juice. The inhibiting rate was obtained from the values of gastric acid secretion of the control group and of the administered group.

Structures are written as SMILES. Counter-ions that a name gives are not always drawn.

Chain of proton.potassium-adenosine triphosphatase (H+.K+-ATPase) (P19156 whole entry): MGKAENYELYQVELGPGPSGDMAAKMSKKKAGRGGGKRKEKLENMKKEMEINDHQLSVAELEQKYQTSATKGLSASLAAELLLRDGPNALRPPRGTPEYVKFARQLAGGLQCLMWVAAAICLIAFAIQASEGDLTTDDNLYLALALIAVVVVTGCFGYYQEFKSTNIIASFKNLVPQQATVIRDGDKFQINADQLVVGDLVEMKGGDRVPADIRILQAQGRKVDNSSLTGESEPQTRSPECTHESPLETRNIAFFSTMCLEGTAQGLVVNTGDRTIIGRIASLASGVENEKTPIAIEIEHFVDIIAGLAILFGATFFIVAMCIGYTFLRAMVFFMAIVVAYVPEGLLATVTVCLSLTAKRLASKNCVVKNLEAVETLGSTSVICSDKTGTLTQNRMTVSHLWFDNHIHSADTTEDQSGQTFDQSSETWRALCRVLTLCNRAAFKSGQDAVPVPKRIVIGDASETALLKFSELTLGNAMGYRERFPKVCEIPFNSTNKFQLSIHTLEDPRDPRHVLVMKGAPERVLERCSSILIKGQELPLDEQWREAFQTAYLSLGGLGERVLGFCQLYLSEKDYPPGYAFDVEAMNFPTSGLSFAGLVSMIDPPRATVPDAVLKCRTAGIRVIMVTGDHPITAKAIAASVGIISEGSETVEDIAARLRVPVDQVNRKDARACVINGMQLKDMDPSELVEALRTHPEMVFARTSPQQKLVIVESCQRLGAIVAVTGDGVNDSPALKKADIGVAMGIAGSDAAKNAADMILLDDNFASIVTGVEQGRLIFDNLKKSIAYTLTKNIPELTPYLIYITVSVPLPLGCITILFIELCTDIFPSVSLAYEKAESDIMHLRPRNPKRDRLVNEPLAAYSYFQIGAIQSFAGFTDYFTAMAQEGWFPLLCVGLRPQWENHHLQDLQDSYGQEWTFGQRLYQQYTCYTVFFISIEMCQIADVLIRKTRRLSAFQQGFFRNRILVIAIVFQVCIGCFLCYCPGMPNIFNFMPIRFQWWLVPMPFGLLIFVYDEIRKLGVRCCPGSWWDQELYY
Chain of proton.potassium-adenosine triphosphatase (H+.K+-ATPase) (P18434 whole entry partner): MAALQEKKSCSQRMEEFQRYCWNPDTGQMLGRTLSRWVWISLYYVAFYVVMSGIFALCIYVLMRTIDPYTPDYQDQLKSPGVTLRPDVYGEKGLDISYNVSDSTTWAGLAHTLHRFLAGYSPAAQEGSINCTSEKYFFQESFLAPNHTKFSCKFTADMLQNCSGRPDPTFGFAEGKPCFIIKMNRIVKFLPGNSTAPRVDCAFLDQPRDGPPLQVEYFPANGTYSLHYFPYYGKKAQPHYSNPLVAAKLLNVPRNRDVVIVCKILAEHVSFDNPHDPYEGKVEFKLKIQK

For the molecule `CC=CCn1c(C)c(C)c2cnnc(OCc3c(Cl)cccc3Cl)c21` [Example 49, 1-(2-Butenyl)-7-(2,6-dichlorobenzyloxy)-2,3-dimethylpyrrolo[2,3-d]pyridazine], the “minimum inhibitory concentration (MIC) against Helicobacter pylori” value (shortened to “minimum inhibitory concentration (MIC)”) in test [1] was “excellent antibacterial activity”. Moreover, in test [2], the “inhibiting concentrations (IC50) to proton.potassium-adenosine triphosphatase activity” value (shortened to “inhibiting concentrations (IC50)”) is “excellent activity”.

On to `Cc1c(C)n(CC2CC2)c2c(OCc3ccc(F)cc3)nncc12` [Example 35, 1-Cyclopropylmethyl-7-(4-fluorobenzyloxy)-2,3-dimethylpyrrolo[2,3-d]pyridazine], for which the “inhibiting rate of gastric acid secretion” value (“inhibiting rate” below) in the test with gastric acid secretion is “excellent activity”. For the same molecule, in test [2], the “inhibiting concentrations (IC50)” value is given as “excellent activity”.

On to `C/C=C/n1c(C)c(C)c2cnnc(OCc3ccc(F)cc3)c21` [Example 44, 7-(4-Fluorobenzyloxy)-2,3-dimethyl-1-(1-propenyl)-pyrrolo[2,3-d]pyridazine], for which, in test [1], the “minimum inhibitory concentration (MIC)” value is “excellent antibacterial activity”. In addition, in the test with gastric acid secretion, the “inhibiting rate” value is given as “excellent activity”. Besides, the “inhibiting concentrations (IC50)” value in test [2] is “excellent activity”.

Turning to `Cc1c(C)n(C[C@@H]2C[C@H]2C)c2c(OCc3ccc(F)cc3)nncc12` (relative stereo) [Example 57, 7-(4-Fluorobenzyloxy)-2,3-dimethyl-1-(2-methylcyclopropylmethyl)pyrrolo[2,3-d]pyridazine], the “minimum inhibitory concentration (MIC)” value in test [1] was “excellent antibacterial activity”. In addition, the “inhibiting rate” value in the test with gastric acid secretion was “excellent activity”. In addition, the “inhibiting concentrations (IC50)” value in test [2] is listed as “excellent activity”.

Take `CC=CCn1c(C)c(C)c2cnnc(OCc3ccc(Cl)cc3Cl)c21` [Example 21, 1-(2-Butenyl)-7-(2,4-dichlorobenzyloxy)-2,3-dimethylpyrrolo[2,3-d]pyridazine]: in test [1], the “minimum inhibitory concentration (MIC)” value is “excellent antibacterial activity”. Further, in test [2], the “inhibiting concentrations (IC50)” value is on record as “excellent activity”.

Take `CC=CCn1c(C)c(C)c2cnnc(OCc3ccc(F)cc3F)c21` [Example 22, 1-(2-Butenyl)-7-(2,4-difluorobenzyloxy)-2,3-dimethylpyrrolo[2,3-d]pyridazine]: in test [1], the “minimum inhibitory concentration (MIC)” value is given as “excellent antibacterial activity”. Also, the “inhibiting rate” value with gastric acid secretion is “excellent activity”. The “inhibiting concentrations (IC50)” value in test [2] was “excellent activity”.

Take `CC=CCn1c(C)c(C)c2c[n+]([O-])nc(OCc3ccc(F)cc3F)c21` [Example 76, 1-(2-Butenyl)--7-(2,4-difluorobenzyloxy)-2,3-dimethylpyrrolo[2,3-d]pyridazine-5-oxide]: the “minimum inhibitory concentration (MIC)” value in test [1] is “excellent antibacterial activity”. Further, the “inhibiting concentrations (IC50)” value in test [2] was “excellent activity”.

Consider `CC/C=C/Cn1c(C)c(C)c2cnnc(OCc3ccccc3)c21` [Example 11, 7-Benzyloxy-2,3-dimethyl-1-(2-pentenyl)pyrrolo[2,3-d]pyridazine], for which the “minimum inhibitory concentration (MIC)” value in test [1] is listed as “excellent antibacterial activity”. In addition, the “inhibiting rate” value in the test with gastric acid secretion is “excellent activity”.

As to `C=CCn1c(C)c(C)c2cnnc(OCc3ccc(F)cc3F)c21` [Example 9, 7-(2,4-Difluorobenzyloxy)-2,3-dimethyl-1-(2-propenyl)pyrrolo[2,3-d]pyridazine], in test [1], the “minimum inhibitory concentration (MIC)” value was “excellent antibacterial activity”. Further, the “inhibiting rate” value in the test on gastric acid secretion is on record as “excellent activity”. Also, the “inhibiting concentrations (IC50)” value in test [2] is listed as “excellent activity”.

As to `C=CCn1c(C)c(C)c2cnnc(OCc3ccccc3)c21` [Example 3, 7-Benzyloxy-2,3-dimethyl-1-(2-propenyl)pyrrolo[2,3-d]pyridazine], the “minimum inhibitory concentration (MIC)” value in test [1] is listed as “excellent antibacterial activity”. Further, in the test with gastric acid secretion, the “inhibiting rate” value is “excellent activity”.

In the case of `C=CCn1c(C)c(C)c2cnnc(OCc3ccc(F)cc3)c21` [Example 7, 7-(4-Fluorobenzyloxy)-2,3-dimethyl-1-(2-propenyl)pyrrolo[2,3-d]pyridazine], the “minimum inhibitory concentration (MIC)” value in test [1] is “excellent antibacterial activity”. Besides, in the test with gastric acid secretion, the “inhibiting rate” value was “excellent activity”. In test [2], the “inhibiting concentrations (IC50)” value is listed as “excellent activity”.

For `CC=CCn1c(C)c(C)c2c[n+]([O-])nc(OCc3ccc(F)cc3)c21` [Example 75, 1-(2-Butenyl)-7-(4-fluorobenzyloxy)-2,3-dimethylpyrrolo[2,3-d]pyridazine-5-oxide], the “minimum inhibitory concentration (MIC)” value in test [1] is “excellent antibacterial activity”. In test [2], the “inhibiting concentrations (IC50)” value was “excellent activity”.

Take `Cc1c(C)n(C[C@@H]2C[C@H]2C)c2c(OCc3ccc(F)cc3F)nncc12` (relative stereo) [Example 58, 7-(2,4-Difluorobenzyloxy)-2,3-dimethyl-1-(2-methylcyclopropylmethyl)pyrrolo[2,3-d]pyridazine]: the “minimum inhibitory concentration (MIC)” value in test [1] is given as “excellent antibacterial activity”. In addition, the “inhibiting rate” value in the test with gastric acid secretion was “excellent activity”. Besides, the “inhibiting concentrations (IC50)” value in test [2] is listed as “excellent activity”.

Take `CC=CCn1c(C)c(C)c2cnnc(OCc3ccccc3)c21` [Example 5, 7-Benzyloxy-1-(2-butenyl)-2,3-dimethylpyrrolo[2,3-d]pyridazine]: the “minimum inhibitory concentration (MIC)” value in test [1] is reported as “excellent antibacterial activity”. Besides, the “inhibiting rate” value with gastric acid secretion was “excellent activity”.

For `C/C=C/Cn1c(C)c(C)c2cnnc(OCc3ccc(F)cc3)c21` [Example 74, 1-(2-Butenyl)-7-(4-fluorobenzyloxy)-2,3-dimethylpyrrolo[2,3-d]pyridazine hydrochloride], the “inhibiting concentrations (IC50)” value in test [2] is recorded as “excellent activity”.

Turning to `C=C(C)Cn1c(C)c(C)c2cnnc(OCc3ccccc3)c21` [Example 14, 7-Benzyloxy-2,3-dimethyl-1-(2-methyl-2-propenyl)-ovrrolo[2,3-d]pyridazine], the “minimum inhibitory concentration (MIC)” value in test [1] is recorded as “excellent antibacterial activity”. For the same molecule, in the test with gastric acid secretion, the “inhibiting rate” value is recorded as “excellent activity”.

Turning to `Cc1c(C)n(CC2CC2)c2c(OCc3ccccc3)nncc12` [Example 4, 7-Benzyloxy-1-cyclopropylmethyl-2,3-dimethylpyrrolo[2,3-d]pyridazine], the “minimum inhibitory concentration (MIC)” value in test [1] was “excellent antibacterial activity”. Moreover, the “inhibiting concentrations (IC50)” value in test [2] was “excellent activity”.

With `Cc1c(C)n(C2CC2)c2c(OCc3ccccc3)nncc12` [Example 16, 7-Benzyloxy-1-cyclopropyl-2,3-dimethylpyrrolo[2,3-d]pyridazine], the “minimum inhibitory concentration (MIC)” value in test [1] was “excellent antibacterial activity”. Besides, in the test on gastric acid secretion, the “inhibiting rate” value is “excellent activity”.
